This note sets out measurements from US20260374773A1, “MULTI-CYCLIC IRAK AND FLT3 INHIBITING COMPOUNDS AND USES THEREOF” (CHILDREN'S HOSPITAL MEDICAL CENTER, priority 2022, published 2026).

As usually defined, the Kd is the constant that tells how readily two partners part at equilibrium.

What all share (settings): no ATP
In one test the target is IRAK1 (Homo sapiens, UniProt P51617). The test can be described thus: DiscoverX KINOMEscan active site-directed competition binding, IRAK1.
Text: (§1) Kinase binding data were obtained for various exemplary compounds prepared according to Examples 1-8 using the DiscoverX KINOMEscan® active site-directed competition binding site-directed assay protocol described below. […] As a result, the data report thermodynamic interaction affinities (Kd values), rather than IC50 values that are dependent on ATP concentrations. The assay uses a DNA-tagged version of the protein kinase, and an immobilized ligand bound to a solid support. Compounds that directly or indirectly prevent kinase binding to the immobilized ligand reduce the amount of kinase captured on the solid support, which is detected using an ultra-sensitive qPCR method. Affinity constants reported from the assay have been reported to be independent of the immobilized ligand used that is coupled to the solid support (See supplemental information in Fabian, M. A. et. al., (2005) Nat. Biotechnol. 23, 329-336; Wodicka, L. M. et. al., (2010) Chem. Biol. 17, 1241-1249.)
(§2) Kinase-tagged T7 phage strains were prepared in an E. coli host derived from the BL21 strain. E. coli were grown to log-phase and infected with T7 phage and incubated with shaking at 32 °C until lysis. The lysates were centrifuged and filtered to remove cell debris. The remaining kinases were produced in HEK-293 cells and subsequently tagged with DNA for qPCR detection. Streptavidin-coated magnetic beads were treated with biotinylated small molecule ligands for 30 minutes at room temperature to generate affinity resins for kinase assays. The liganded beads were blocked with excess biotin and washed with blocking buffer (SeaBlock (Pierce), 1% BSA, 0.05% Tween 20, 1 mM DTT) to remove unbound ligand and to reduce non-specific binding. […] Test compounds were prepared as 111x stocks in 100% DMSO. Kds were determined using an 11-point 3-fold compound dilution series with three DMSO control points. All compounds for Kd measurements are distributed by acoustic transfer (non-contact dispensing) in 100% DMSO. The compounds were then diluted directly into the assays such that the final concentration of DMSO was 0.9%. All reactions were performed in polypropylene 384-well plates. Each was a final volume of 0.02 mL. The assay plates were incubated at room temperature with shaking for 1 hour and the affinity beads were washed with wash buffer (1×PBS, 0.05% Tween 20). The beads were then re-suspended in elution buffer (1×PBS, 0.05% Tween 20, 0.5 μM nonbiotinylated affinity ligand) and incubated at room temperature with shaking for 30 minutes. The kinase concentration in the eluates was measured by qPCR. Binding constants (Kds) were calculated with a standard dose-response curve using the Hill equation. The Hill Slope was set to −1. Curves were fitted using a non-linear least square fit with the Levenberg-Marquardt algorithm.
as §1, with “9-12” for “1-8”
(§3) Kinase-tagged T7 phage strains were prepared in an E. coli host derived from the BL21 strain. […]

A further test concerns the target T1, FLT3 (Homo sapiens, UniProt P36888).
T1 sequence (P36888 27-993): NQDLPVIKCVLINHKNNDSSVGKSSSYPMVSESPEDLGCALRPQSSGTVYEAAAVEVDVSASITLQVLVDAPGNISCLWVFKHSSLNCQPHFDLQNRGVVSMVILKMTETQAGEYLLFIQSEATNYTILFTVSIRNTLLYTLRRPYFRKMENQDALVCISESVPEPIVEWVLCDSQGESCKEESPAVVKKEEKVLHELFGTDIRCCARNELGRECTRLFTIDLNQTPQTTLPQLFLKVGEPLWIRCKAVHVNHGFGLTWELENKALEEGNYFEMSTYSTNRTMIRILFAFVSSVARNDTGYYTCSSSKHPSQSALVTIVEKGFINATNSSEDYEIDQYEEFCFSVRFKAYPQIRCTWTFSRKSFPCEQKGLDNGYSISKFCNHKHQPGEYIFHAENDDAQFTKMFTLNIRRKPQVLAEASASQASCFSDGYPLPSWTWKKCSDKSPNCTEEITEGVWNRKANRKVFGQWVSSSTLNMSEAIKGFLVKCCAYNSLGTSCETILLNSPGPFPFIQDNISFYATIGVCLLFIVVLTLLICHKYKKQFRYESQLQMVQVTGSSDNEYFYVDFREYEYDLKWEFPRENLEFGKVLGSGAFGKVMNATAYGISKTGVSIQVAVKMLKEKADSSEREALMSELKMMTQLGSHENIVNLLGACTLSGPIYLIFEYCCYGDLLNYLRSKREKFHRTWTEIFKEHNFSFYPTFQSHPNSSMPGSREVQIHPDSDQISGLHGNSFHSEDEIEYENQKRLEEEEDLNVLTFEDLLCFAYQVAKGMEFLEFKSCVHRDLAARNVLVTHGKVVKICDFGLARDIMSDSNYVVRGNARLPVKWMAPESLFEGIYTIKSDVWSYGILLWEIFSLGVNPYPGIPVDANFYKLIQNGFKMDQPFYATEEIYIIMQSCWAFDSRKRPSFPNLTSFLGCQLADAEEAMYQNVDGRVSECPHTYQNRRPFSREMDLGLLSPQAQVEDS
As to the kind of experiment: DiscoverX KINOMEscan active site-directed competition binding, FLT3.
Text: as §1, §2
as §1, with “9-12” for “1-8”
as §3

In the next test the target is T2, FLT3 ITD, D835V (Homo sapiens, UniProt P36888, D835V/ITD).
T2 sequence (P36888 27-993 D835V): T1 sequence (P36888 27-993)
The test can be described thus: DiscoverX KINOMEscan active site-directed competition binding, FLT3 ITD, D835V.
Text: as §1, §2
as §1, with “9-12” for “1-8”
as §3

The next test concerns the target T3, FLT3 ITD, F691L (Homo sapiens, UniProt P36888, F691L/ITD).
T3 construct: F691L gatekeeper
T3 sequence (P36888 27-993 F691L): T1 sequence (P36888 27-993)
As to the kind of experiment: DiscoverX KINOMEscan active site-directed competition binding, FLT3 ITD, F691L.
Text: as §1, §2
as §1, with “9-12” for “1-8”
as §3

Chain of IRAK1 (P51617 whole entry): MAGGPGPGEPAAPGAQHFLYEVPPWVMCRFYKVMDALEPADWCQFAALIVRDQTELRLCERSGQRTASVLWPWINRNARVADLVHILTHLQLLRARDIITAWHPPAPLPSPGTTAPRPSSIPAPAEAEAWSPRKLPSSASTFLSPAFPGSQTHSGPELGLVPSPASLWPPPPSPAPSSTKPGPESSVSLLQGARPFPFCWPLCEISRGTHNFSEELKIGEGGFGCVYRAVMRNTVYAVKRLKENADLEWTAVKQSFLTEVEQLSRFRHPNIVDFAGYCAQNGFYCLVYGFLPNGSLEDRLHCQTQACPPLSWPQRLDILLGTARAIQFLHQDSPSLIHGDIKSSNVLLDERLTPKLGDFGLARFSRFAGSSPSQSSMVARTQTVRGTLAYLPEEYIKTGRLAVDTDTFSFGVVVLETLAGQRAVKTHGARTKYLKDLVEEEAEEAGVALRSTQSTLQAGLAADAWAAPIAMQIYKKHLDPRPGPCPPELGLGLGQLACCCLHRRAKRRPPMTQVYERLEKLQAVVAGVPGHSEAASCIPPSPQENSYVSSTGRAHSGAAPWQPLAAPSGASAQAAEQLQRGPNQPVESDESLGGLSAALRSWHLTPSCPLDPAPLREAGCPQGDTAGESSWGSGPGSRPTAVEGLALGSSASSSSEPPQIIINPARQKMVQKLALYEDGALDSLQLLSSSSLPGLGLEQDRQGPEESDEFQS

Turning to `COc1cn2ncc(-c3nc(N[C@H]4CNCC[C@@H]4F)ncc3F)c2nc1C(C)(C)O` [Compound 6a, 2-(3-(5-fluoro-2-(((3S,4S)-4-fluoropiperidin-3-yl)amino)pyrimidin-4-yl)-6-methoxypyrazolo[1,5-a]pyrimidin-5-yl)propan-2-ol], the Kd at IRAK1 (Table 18) is 0.28 nM; on FLT3 (Table 18), 0.47 nM; on FLT3 ITD, D835V (Table 19) it was under 0.17 nM; at FLT3 ITD, F691L (Table 19), under 0.17 nM.
Turning to `COc1cn2ncc(-c3nc(N[C@H]4CNCC[C@@H]4F)c(C#N)cc3F)c2nc1C1CC1` [Compound 7, 6-(5-cyclopropyl-6-methoxypyrazolo[1,5-a]pyrimidin-3-yl)-5-fluoro-2-(((3S,4S)-4-fluoropiperidin-3-yl)amino)nicotinonitrile], the Kd on IRAK1 (Table 12) was under 0.17 nM; at FLT3 (Table 12) it was under 0.17 nM; on FLT3 ITD, D835V (Table 13), under 0.17 nM; on FLT3 ITD, F691L (Table 13), under 0.17 nM.
On to `COc1cn2ncc(-c3ccnc(N[C@H]4CNCC[C@@H]4F)n3)c2nc1C1CC1` [Compound 7a, 4-(5-cyclopropyl-6-methoxypyrazolo[1,5-a]pyrimidin-3-yl)-N-((3S,4S)-4-fluoropiperidin-3-yl)pyrimidin-2-amine], for which the Kd on IRAK1 (Table 18) was 0.53 nM; on FLT3 (Table 18), under 0.17 nM; at FLT3 ITD, D835V (Table 19), under 0.17 nM; on FLT3 ITD, F691L (Table 19), under 0.17 nM.
Take `COc1cn2ncc(-c3nc(N[C@H]4CNCC[C@@H]4F)c(C#N)cc3F)c2nc1C(C)(C)O` [Compound 10, 5-fluoro-2-(((3S,4S)-4-fluoropiperidin-3-yl)amino)-6-(5-(2-hydroxypropan-2-yl)-6-methoxypyrazolo[1,5-a]pyrimidin-3-yl)nicotinonitrile]: the Kd was 0.81 nM on IRAK1 (Table 12); 0.28 nM on FLT3 (Table 12); under 0.17 nM at FLT3 ITD, D835V (Table 13); under 0.17 nM at FLT3 ITD, F691L (Table 13).
With `COc1cn2ncc(-c3cncc(N[C@H]4CNCC[C@@H]4F)n3)c2nc1C1CC1` [Compound 12a, 6-(5-cyclopropyl-6-methoxypyrazolo[1,5-a]pyrimidin-3-yl)-N-((3S,4S)-4-fluoropiperidin-3-yl)pyrazin-2-amine], the Kd on IRAK1 (Table 18) is 0.78 nM; at FLT3 (Table 18) it was under 0.17 nM; on FLT3 ITD, D835V (Table 19) it was under 0.17 nM; at FLT3 ITD, F691L (Table 19), under 0.17 nM.
As for `COc1cn2ncc(-c3nc(N[C@H]4CNCC[C@@H]4F)c(F)cc3F)c2nc1C(C)(C)O` [Compound 13, 2-(3-(3,5-difluoro-6-(((3S,4S)-4-fluoropiperidin-3-yl)amino)pyridin-2-yl)-6-methoxypyrazolo[1,5-a]pyrimidin-5-yl)propan-2-ol], the Kd was 0.27 nM at IRAK1 (Table 12); 0.61 nM at FLT3 (Table 12); under 0.17 nM on FLT3 ITD, D835V (Table 13); under 0.17 nM on FLT3 ITD, F691L (Table 13).
On to `COc1cn2ncc(-c3nc(N[C@@H]4CCCNC4)ncc3F)c2nc1C1CC1` [Compound 14a, (R)-4-(5-cyclopropyl-6-methoxypyrazolo[1,5-a]pyrimidin-3-yl)-5-fluoro-N-(piperidin-3-yl)pyrimidin-2-amine], for which the Kd at IRAK1 (Table 18) was under 0.17 nM; on FLT3 (Table 18), under 0.17 nM; at FLT3 ITD, D835V (Table 19), under 0.17 nM; at FLT3 ITD, F691L (Table 19) it was under 0.17 nM.
Turning to `COc1cn2ncc(-c3nc(N[C@H]4CNCC[C@@H]4F)ncc3F)c2nc1C1CC1` [Compound 15a, 4-(5-cyclopropyl-6-methoxypyrazolo[1,5-a]pyrimidin-3-yl)-5-fluoro-N-((3S,4S)-4-fluoropiperidin-3-yl)pyrimidin-2-amine], the Kd was under 0.17 nM on IRAK1 (Table 18); under 0.17 nM at FLT3 (Table 18); under 0.17 nM at FLT3 ITD, D835V (Table 19); under 0.17 nM on FLT3 ITD, F691L (Table 19).
